Data as given in BigSolDB 2.1.

CCOc1ccccc1C(N)=O
solubility (mole fraction)
Details | 293.15 K | 298.15 K | 303.15 K | 308.15 K | 313.15 K | 318.15 K | 323.15 K
in acetonitrile | 0.00709 | 0.0091 | 0.0123 | 0.0167 | 0.022 | 0.0285 | 0.0377
in ethanol | 0.0121 | 0.0162 | 0.0198 | 0.0252 | 0.0313 | 0.0392 | 0.0472
in isopropanol | 0.0097 | 0.0125 | 0.0155 | 0.0189 | 0.024 | 0.0304 | 0.0391
in methanol | 0.016 | 0.02 | 0.0252 | 0.0306 | 0.0392 | 0.0484 | 0.0596
